Laboratory results published in US20240327364A1, “THERAPEUTIC TARGETING OF GPR68 TO INDUCE FERROPTOSIS” (University Of Maryland, Baltimore, priority 2023, published 2024).

Experiments:
U87 = assay: 2D cell growth/viability; format: cell-based, human; settings: 72 hours
Method: (§1) GBM neurospheres and low passage PDX models were plated in 96-well plates at 10,000 cells per well in 50 μL of neural stem cell media. The next day, the cells were treated with OGM2 compounds at the indicated concentrations, in triplicates, by adding an equal volume of medium containing 2× the final concentration of compound. Following 72 hours incubation under standard cell culture conditions, relative cell number was assessed using Cell Titer-Glo Luminescent Cell Viability Assay (Promega™) following the manufacturer's instructions. Luminescence was determined using a Cytation 5 reader and Gen5 software package (BioTek™). For U87 and U138 cell lines, one thousand cells were plated per well in a standard 96-well plate and allowed to attach for 24 hours before exposure to concentrations of vehicle, OGM2, or TMZ. Cells were treated for 72 hours and then stained with DAPI. A 10× magnification lens on a LionheartFX (BioTek™) was used to image the wells, and images were stitched together with Gen5 software (BioTek™). Automated nuclei counting was also done using the Gen5 software. Results reported as percent response relative to DMSO control. IC50 (the concentration causing 50% inhibition) was determined by GraphPad Prism™ version 6.07.
(§2) Temozolomide is the standard of care for glioblastoma but only works on 30% of patients. […]

U138 = assay: 2D cell growth/viability; format: cell-based, human
Method: as §1, §2

FGFR2 = molecular target: T1, FGFR2 (Homo sapiens, UniProt P21802); assay: KinomeScan; format: binding; settings: read-out: % Control
T1 construct: purchased DiscoveRx (Fremont, CA)

MAP4K2 = molecular target: T2, MAP4K2 (Homo sapiens, UniProt Q12851); assay: KinomeScan; format: binding; settings: read-out: % Control
T2 construct: purchased DiscoveRx (Fremont, CA)

GIP = molecular target: T3, GIP (Homo sapiens, UniProt P48546); assay: GPCR Profiler; format: cell-based
T3 construct: host or cells: Chem-1 cells expressing Gα15

MARK4 = molecular target: T4, MARK4 (Homo sapiens, UniProt Q96L34); assay: KinomeScan; format: binding; settings: read-out: % Control
T4 construct: purchased DiscoveRx (Fremont, CA)

NOP = molecular target: T5, NOP (Homo sapiens, UniProt P41146); assay: GPCR Profiler; format: cell-based
T5 construct: host or cells: Chem-1 cells expressing Gα15

ADRB3 = molecular target: T6, ADRB3 (Homo sapiens, UniProt P13945); assay: GPCR Profiler; format: cell-based; settings: 12.5 uM
T6 construct: host or cells: Chem-1 cells with promiscuous Gα15

PHKG2 = molecular target: T7, PHKG2 (Homo sapiens, UniProt P15735); assay: KinomeScan; format: binding; settings: read-out: % Control
T7 construct: purchased DiscoveRx (Fremont, CA)

ROCK1 = molecular target: T8, ROCK1 (Homo sapiens, UniProt Q13464); assay: KinomeScan; format: binding; settings: read-out: % Control
T8 construct: purchased DiscoveRx (Fremont, CA)

CB2 = molecular target: T9, CB2 (Homo sapiens, UniProt P34972); assay: GPCR Profiler; format: cell-based
T9 construct: host or cells: Chem-1 cells with promiscuous Gα15

ERBB4 = molecular target: T10, ERBB4 (Homo sapiens, UniProt Q15303); assay: KinomeScan; format: binding; settings: read-out: % Control
T10 construct: purchased DiscoveRx (Fremont, CA)

ABL2 = molecular target: T11, ABL2 (Homo sapiens, UniProt P42684); assay: KinomeScan; format: binding; settings: read-out: % Control
T11 construct: purchased DiscoveRx

PRKR = molecular target: T12, PRKR (Homo sapiens, UniProt P19525); assay: KinomeScan; format: binding; settings: read-out: % Control
T12 construct: purchased DiscoveRx (Fremont, CA)

PRKCQ = molecular target: T13, PRKCQ (Homo sapiens, UniProt Q04759); assay: KinomeScan; format: binding; settings: read-out: % Control
T13 construct: purchased DiscoveRx (Fremont, CA)

DAPK2 = molecular target: T14, DAPK2 (Homo sapiens, UniProt Q9UIK4); assay: KinomeScan; format: binding; settings: read-out: % Control
T14 construct: purchased DiscoveRx (Fremont, CA), KinomeScan service

LATS1 = molecular target: T15, LATS1 (Homo sapiens, UniProt O95835); assay: KinomeScan; format: binding; settings: read-out: % Control
T15 construct: purchased DiscoveRx

NEK6 = molecular target: T16, NEK6 (Homo sapiens, UniProt Q9HC98); assay: KinomeScan; format: binding; settings: read-out: % Control
T16 construct: purchased DiscoveRx

PIK3CA(E545A) = molecular target: T17, PIK3CA(E545A) (Homo sapiens, UniProt P42336, E545A); assay: KinomeScan; format: binding; settings: read-out: % Control
T17 construct: purchased DiscoveRx (Fremont, CA)

STK39 = molecular target: T18, STK39 (Homo sapiens, UniProt Q9UEW8); assay: KinomeScan; format: binding; settings: read-out: % Control
T18 construct: purchased DiscoveRx (Fremont, CA)

BMPR2 = molecular target: T19, BMPR2 (Homo sapiens, UniProt Q13873); assay: KinomeScan; format: binding; settings: read-out: % Control
T19 construct: purchased DiscoveRx (Fremont, CA)

CSNK1A1 = CSNK1A1 (Homo sapiens, UniProt P48729); assay: KinomeScan; format: binding; settings: read-out: % Control
BB3 = molecular target: T20, BB3 (Homo sapiens, UniProt P32247); assay: GPCR Profiler; format: cell-based
T20 construct: host or cells: Chem-1 cells with promiscuous Gα15
T20 sequence (P32247 whole entry): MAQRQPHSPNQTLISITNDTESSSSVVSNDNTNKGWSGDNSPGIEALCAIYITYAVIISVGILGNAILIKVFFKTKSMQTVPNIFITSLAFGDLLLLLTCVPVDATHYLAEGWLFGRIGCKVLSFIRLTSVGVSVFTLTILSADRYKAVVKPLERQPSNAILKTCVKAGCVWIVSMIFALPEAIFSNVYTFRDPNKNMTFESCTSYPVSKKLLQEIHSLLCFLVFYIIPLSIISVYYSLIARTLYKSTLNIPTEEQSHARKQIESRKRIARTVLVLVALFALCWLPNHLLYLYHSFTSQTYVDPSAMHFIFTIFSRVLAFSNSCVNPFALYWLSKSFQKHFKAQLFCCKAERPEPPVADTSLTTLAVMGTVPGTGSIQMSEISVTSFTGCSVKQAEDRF

T5 sequence (P41146 whole entry): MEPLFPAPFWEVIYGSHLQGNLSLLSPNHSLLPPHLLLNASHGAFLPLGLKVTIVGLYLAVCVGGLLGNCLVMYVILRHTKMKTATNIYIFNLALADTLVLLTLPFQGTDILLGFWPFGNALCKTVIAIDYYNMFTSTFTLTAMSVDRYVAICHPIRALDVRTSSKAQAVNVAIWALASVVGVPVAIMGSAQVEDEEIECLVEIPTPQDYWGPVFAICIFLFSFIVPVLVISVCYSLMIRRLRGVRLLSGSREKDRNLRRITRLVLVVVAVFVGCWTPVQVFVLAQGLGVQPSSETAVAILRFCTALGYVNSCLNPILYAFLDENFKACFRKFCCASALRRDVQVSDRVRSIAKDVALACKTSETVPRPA
T3 sequence (P48546 22-466): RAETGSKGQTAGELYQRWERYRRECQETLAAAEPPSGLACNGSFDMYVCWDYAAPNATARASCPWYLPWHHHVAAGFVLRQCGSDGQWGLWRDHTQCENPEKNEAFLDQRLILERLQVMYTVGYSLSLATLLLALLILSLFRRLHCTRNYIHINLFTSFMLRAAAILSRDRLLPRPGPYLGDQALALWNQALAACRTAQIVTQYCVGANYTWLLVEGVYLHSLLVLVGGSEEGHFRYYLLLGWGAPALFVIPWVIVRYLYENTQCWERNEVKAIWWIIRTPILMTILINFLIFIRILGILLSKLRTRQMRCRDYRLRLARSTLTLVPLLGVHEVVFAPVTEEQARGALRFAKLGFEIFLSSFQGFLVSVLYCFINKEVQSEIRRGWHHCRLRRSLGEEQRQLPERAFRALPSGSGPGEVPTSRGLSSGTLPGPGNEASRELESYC
T9 sequence (P34972 whole entry, species assumed): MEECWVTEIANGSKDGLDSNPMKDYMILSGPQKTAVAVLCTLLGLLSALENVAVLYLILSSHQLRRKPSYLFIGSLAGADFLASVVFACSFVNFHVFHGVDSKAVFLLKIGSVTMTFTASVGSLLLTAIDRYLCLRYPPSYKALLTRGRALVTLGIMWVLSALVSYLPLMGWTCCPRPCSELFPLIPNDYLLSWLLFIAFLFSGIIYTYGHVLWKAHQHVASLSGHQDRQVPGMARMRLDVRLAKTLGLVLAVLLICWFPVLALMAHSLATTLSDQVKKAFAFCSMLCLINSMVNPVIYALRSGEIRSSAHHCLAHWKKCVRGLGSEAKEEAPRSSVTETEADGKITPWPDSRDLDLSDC
T4 sequence (Q96L34 whole entry): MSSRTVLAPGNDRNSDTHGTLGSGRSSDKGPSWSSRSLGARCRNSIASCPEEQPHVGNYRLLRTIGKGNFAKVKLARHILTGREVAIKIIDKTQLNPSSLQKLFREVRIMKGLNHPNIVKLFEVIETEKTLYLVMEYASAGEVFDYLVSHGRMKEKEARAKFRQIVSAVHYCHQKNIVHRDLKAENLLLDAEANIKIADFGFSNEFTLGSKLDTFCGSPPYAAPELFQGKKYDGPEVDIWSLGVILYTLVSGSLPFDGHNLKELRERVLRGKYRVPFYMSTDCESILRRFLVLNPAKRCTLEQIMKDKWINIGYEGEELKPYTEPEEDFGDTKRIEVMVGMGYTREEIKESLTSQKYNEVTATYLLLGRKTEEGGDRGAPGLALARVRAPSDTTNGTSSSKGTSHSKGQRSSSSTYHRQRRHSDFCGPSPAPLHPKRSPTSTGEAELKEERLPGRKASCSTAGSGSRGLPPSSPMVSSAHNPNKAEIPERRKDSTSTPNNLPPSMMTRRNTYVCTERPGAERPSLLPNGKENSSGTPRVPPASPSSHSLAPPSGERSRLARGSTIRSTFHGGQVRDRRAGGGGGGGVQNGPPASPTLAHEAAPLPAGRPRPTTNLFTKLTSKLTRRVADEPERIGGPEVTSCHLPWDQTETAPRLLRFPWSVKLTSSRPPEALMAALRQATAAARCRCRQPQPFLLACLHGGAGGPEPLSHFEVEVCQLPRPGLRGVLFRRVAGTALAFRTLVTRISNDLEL
T17 sequence (P42336 whole entry E545A): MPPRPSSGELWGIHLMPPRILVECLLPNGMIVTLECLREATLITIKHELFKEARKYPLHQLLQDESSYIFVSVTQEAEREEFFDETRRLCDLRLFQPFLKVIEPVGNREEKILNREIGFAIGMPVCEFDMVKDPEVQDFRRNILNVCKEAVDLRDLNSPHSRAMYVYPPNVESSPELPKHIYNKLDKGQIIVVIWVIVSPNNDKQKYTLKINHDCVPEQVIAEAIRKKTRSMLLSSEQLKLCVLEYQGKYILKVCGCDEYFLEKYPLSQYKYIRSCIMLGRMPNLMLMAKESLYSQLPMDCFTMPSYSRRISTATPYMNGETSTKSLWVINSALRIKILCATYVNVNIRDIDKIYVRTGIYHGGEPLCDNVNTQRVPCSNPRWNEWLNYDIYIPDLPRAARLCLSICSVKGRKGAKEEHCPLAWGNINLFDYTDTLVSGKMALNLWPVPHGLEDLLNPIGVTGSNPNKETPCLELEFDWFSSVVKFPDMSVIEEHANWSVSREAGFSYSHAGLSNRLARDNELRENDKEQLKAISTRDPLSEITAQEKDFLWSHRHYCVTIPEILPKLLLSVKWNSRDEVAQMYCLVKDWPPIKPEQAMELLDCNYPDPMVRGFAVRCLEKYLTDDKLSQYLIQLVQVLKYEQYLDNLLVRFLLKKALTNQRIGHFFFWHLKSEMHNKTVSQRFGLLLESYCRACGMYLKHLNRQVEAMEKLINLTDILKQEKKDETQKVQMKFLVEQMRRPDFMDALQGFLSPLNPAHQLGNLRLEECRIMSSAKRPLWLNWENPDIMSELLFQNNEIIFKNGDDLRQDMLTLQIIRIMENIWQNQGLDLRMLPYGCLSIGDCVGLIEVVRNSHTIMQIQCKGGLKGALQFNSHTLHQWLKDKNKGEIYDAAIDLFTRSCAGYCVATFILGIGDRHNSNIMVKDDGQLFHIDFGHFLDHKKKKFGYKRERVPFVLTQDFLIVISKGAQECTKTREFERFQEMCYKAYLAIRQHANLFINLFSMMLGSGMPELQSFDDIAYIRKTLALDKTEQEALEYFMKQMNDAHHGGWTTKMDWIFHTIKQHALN
T12 sequence (P19525 whole entry): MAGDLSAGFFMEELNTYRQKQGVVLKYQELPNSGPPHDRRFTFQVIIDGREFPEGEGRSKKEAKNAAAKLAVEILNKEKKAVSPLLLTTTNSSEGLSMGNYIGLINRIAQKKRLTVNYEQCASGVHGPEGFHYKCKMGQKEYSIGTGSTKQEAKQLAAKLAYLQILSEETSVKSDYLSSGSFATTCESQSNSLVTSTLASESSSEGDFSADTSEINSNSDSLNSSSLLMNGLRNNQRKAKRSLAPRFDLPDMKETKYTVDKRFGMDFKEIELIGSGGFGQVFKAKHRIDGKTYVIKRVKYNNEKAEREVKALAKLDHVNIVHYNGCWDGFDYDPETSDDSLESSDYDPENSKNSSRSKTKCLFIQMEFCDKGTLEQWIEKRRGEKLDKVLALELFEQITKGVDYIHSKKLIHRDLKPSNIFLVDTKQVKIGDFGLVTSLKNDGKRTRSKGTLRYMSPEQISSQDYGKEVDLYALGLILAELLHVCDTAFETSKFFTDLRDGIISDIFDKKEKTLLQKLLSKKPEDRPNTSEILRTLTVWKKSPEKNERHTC
Sequence of CSNK1A1 (P48729 whole entry): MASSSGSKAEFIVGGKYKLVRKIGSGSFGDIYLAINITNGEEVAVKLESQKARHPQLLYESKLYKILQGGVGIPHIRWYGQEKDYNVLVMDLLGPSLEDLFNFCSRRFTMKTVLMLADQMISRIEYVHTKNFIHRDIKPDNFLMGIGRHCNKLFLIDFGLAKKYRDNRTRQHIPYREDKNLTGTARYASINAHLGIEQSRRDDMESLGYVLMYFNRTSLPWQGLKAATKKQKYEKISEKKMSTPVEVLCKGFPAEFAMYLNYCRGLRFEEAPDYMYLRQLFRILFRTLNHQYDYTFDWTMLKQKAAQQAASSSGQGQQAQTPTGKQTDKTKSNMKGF
T16 sequence (Q9HC98 whole entry): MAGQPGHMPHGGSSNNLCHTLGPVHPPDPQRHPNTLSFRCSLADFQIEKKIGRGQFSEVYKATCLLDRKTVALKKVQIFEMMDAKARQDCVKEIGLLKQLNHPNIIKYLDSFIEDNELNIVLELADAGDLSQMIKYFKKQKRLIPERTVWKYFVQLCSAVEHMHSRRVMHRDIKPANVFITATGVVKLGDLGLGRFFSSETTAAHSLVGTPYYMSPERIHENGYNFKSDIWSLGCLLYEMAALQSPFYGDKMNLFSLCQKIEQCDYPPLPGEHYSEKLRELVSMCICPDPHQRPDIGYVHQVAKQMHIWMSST
T14 sequence (Q9UIK4 whole entry): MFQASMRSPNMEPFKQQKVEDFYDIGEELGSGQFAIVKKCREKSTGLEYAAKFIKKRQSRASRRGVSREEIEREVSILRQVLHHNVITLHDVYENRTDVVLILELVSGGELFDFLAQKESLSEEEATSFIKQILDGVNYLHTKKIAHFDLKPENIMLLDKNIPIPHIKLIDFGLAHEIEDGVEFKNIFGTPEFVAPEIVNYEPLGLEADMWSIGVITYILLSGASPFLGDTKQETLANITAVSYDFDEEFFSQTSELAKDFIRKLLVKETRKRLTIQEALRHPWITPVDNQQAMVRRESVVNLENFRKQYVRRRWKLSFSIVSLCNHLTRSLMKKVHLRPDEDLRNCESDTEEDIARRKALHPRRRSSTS

**Q.** How did the “cell growth, comparison with Temozolomide” value (U87) turn out when `CCc1ccc2c(c1)C1(NN=C(c3ccccc3)S1)C(=O)N2` (stereo not drawn) [OGM2] was run?
**A.** more potent inhibitor of U87 cell growth in 2D cell assay than Temozolomide

**Q.** And the “cell growth in 2D culture” value (U138)?
**A.** caused dose-dependent inhibition of U138 cell growth

**Q.** What does the source list for `CCc1ccc2c(c1)C1(NN=C(c3cccc4ccccc34)S1)C(=O)N2` (stereo not drawn) [OGM1, 5-ethyl-5′-naphthalen-1-ylspiro[1H-indole-3,2′-3H-1,3,4-thiadiazole]-2-one]?
**A.** remaining binding at 10 µM (FGFR2): 100%; remaining binding at 10 µM (MAP4K2): 83%; Antagonism (GIP; 10 uM): 0.2; Agonism (GIP; 12.5 uM): 1.5; remaining binding at 10 µM (MARK4): 95%; Antagonism (NOP; 10 uM): −1.9; Agonism (NOP; 12.5 uM): 0.2; Agonism (ADRB3): −0.2; remaining binding at 10 µM (PHKG2): 71%; remaining binding at 10 µM (ROCK1): 71%; Antagonism (CB2; 10 uM): −13.8; Agonism (CB2; 12.5 uM): −2.4; remaining binding at 10 µM (ERBB4): 100%; remaining binding at 10 µM (ABL2): 100%; remaining binding at 10 µM (PRKR): 59%; remaining binding at 10 µM (PRKCQ): 99%; remaining binding at 10 µM (DAPK2): 89%; remaining binding at 10 µM (LATS1): 100%; remaining binding at 10 µM (NEK6): 100%; remaining binding at 10 µM (PIK3CA(E545A)): 81%; remaining binding at 10 µM (STK39): 59%; remaining binding at 10 µM (BMPR2): 92%; remaining binding at 10 µM (CSNK1A1): 75%; Antagonism (BB3; 10 uM): −0.7; Agonism (BB3; 12.5 uM): 1.3
